# Source: ChEMBL document CHEMBL3046777, “Synthesis of new phenylcarbamoylbenzoic acid derivatives and evaluation of their in vitro antioxidant activity” (Med Chem Res, 2012)
# Assay: Antioxidant activity assessed as […] by ABTS-spectrophotometric assay
# Assay type: functional
# Design: concentration or dose not given beside the values
# Conditions: dose or concentration not given here
row,Structure (SMILES),inhibition [%]
1,NNC(=O)c1ccc(NC(=O)c2ccccc2C(=O)O)cc1,55.2
2,C/C(=N\N=C\c1ccc(Cl)cc1)c1ccc(NC(=O)c2ccccc2C(=O)O)cc1,24.8
3,C/C(=N\N=C\c1ccccc1)c1ccc(NC(=O)c2ccccc2C(=O)O)cc1,12.9
4,O=C(N/N=C/c1ccccc1)c1ccc(NC(=O)c2ccccc2C(=O)O)cc1,8.78
5,CCOC(=O)c1ccc(NC(=O)c2ccccc2C(=O)O)cc1,4.09
6,C/C(=N\N=C(/C)c1ccc(NC(=O)c2ccccc2C(=O)O)cc1)c1ccccc1,9.85
7,CC(=O)c1ccc(NC(=O)c2ccccc2C(=O)O)cc1,7.42
8,C/C(=N\N1C(=O)c2ccccc2C1=O)c1ccc(NC(=O)c2ccccc2C(=O)O)cc1,4.19
9,C/C(=N\NC(=O)c1ccc(NC(=O)c2ccccc2C(=O)O)cc1)c1ccccc1,2.63
10,O=C(N/N=C/c1ccc(Cl)cc1)c1ccc(NC(=O)c2ccccc2C(=O)O)cc1,19.5
11,COc1ccc(/C=N/N=C(\C)c2ccc(NC(=O)c3ccccc3C(=O)O)cc2)cc1,23
12,C/C(=N\NC(=O)c1ccc(NC(=O)c2ccccc2C(=O)O)cc1)c1ccc(NC(=O)c2ccccc2C(=O)O)cc1,9.95
13,C/C(=N\N)c1ccc(NC(=O)c2ccccc2C(=O)O)cc1,18.2
14,C/C(=N\N=C(/C)c1ccc(NC(=O)c2ccccc2C(=O)O)cc1)c1ccc(NC(=O)c2ccccc2C(=O)O)cc1,10.6
15,O=C(NN1C(=O)c2ccccc2C1=O)c1ccc(NC(=O)c2ccccc2C(=O)O)cc1,8.39
16,COc1ccc(/C=N/NC(=O)c2ccc(NC(=O)c3ccccc3C(=O)O)cc2)cc1,4.29
